Patent US20240124417A1, “COMPOUNDS USEFUL AS IMMUNOMODULATORS” (Bristol-Myers Squibb Company, priority 2019, published 2024)

Biological target: T1, PD-1/PD-L1 (Homo sapiens, UniProt Q9NZQ7)
T1 construct: TVMV protease site linker (C); made in house; host or cells: HEK293T cells
Assay: PD-1/PD-L1 Homogenous Time-Resolved Fluorescence (HTRF) binding assay
Details: PD-L1-His 10 nM, PD-1-Ig 20 nM
Method in brief: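 Inhibitors pre-incubated 15 min with PD-L1-His extracellular domain (10 nM final) in dPBS with 0.1% BSA and 0.05% Tween-20, then PD-1-Ig (20 nM final) added for a further 15 min. Read-out by HTRF with europium cryptate anti-Ig (1 nM) and APC anti-His (20 nM). Related pairs: PD-1-Ig/PD-L2-His (20/5 nM), CD80-His/PD-L1-Ig (100/10 nM).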

T1 sequence (Q9NZQ7 18-239): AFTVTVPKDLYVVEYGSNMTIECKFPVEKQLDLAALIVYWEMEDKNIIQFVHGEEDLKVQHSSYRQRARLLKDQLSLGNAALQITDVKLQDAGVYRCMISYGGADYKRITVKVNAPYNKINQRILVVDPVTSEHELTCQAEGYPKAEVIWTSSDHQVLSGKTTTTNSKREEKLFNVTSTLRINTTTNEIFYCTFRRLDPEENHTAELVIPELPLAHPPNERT

SMILES | IC50 [nM]
Cc1c(COc2cc(OCc3cncc(C#N)c3)c(CN(C)Cc3csc(N)n3)cc2Cl)cccc1-c1cccc(OCC2CCCN(C)C2)c1Cl (centres unmarked) [Example 2617, 5-((2-((((2-aminothiazol-4-yl)methyl)(methyl)amino)methyl)-4-chloro-5-((2′-chloro-2-methyl-3′-((1-methylpiperidin-3-yl)methoxy)-[1,1′-biphenyl]-3-yl)methoxy)phenoxy)methyl)nicotinonitrile] | 1.8
Cc1c(COc2cc(OCc3cncc(C#N)c3)c(CN(C)Cc3nc[nH]n3)cc2Cl)cccc1-c1cccc(OCC2CCCN(C)C2)c1Cl (centres unmarked) [Example 2618, 5-((2-((((1H-1,2,4-triazol-3-yl)methyl)(methyl)amino)methyl)-4-chloro-5-((2′-chloro-2-methyl-3′-((1-methylpiperidin-3-yl)methoxy)-[1,1′-biphenyl]-3-yl)methoxy)phenoxy)methyl)nicotinonitrile] | 0.7
Cc1c(COc2cc(OCc3cncc(C#N)c3)c(CNCc3nnc4ccc(C(F)(F)F)cn34)cc2Cl)cccc1-c1cccc(OCC2CCCN(C)C2)c1Cl (centres unmarked) [Example 2619, 5-((4-chloro-5-((2′-chloro-2-methyl-3′-((1-methylpiperidin-3-yl)methoxy)-[1,1′-biphenyl]-3-yl)methoxy)-2-((((6-(trifluoromethyl)-[1,2,4]triazolo[4,3-a]pyridin-3-yl)methyl)amino)methyl)phenoxy)methyl)nicotinonitrile] | 3.1
Cc1c(COc2cc(OCc3cncc(C#N)c3)c(CNC(C)(C)c3ncon3)cc2Cl)cccc1-c1cccc(OCC2CCCN(C)C2)c1Cl (centres unmarked) [Example 2620, 5-((2-(((2-(1,2,4-oxadiazol-3-yl)propan-2-yl)amino)methyl)-4-chloro-5-((2′-chloro-2-methyl-3′-((1-methylpiperidin-3-yl)methoxy)-[1,1′-biphenyl]-3-yl)methoxy)phenoxy)methyl)nicotinonitrile] | 4.7

Next, values leading:

IC50 [nM] | SMILES
7.3 | Cc1c(COc2cc(OCc3cncc(C#N)c3)c(CNCc3ncc(-c4ccccc4)o3)cc2Cl)cccc1-c1cccc(OCC2CCCN(C)C2)c1Cl (centres unmarked) [Example 2612, 5-((4-chloro-5-((2′-chloro-2-methyl-3′-((1-methylpiperidin-3-yl)methoxy)-[1,1′-biphenyl]-3-yl)methoxy)-2-((((5-phenyloxazol-2-yl)methyl)amino)methyl)phenoxy)methyl)nicotinonitrile]
2.2 | Cc1c(COc2cc(OCc3cncc(C#N)c3)c(CNCCc3nc4cc(Cl)ccc4[nH]3)cc2Cl)cccc1-c1cccc(OCC2CCCN(C)C2)c1Cl (centres unmarked) [Example 2613, 5-((4-chloro-2-(((2-(5-chloro-1H-benzo[d]imidazol-2-yl)ethyl)amino)methyl)-5-((2′-chloro-2-methyl-3′-((1-methylpiperidin-3-yl)methoxy)-[1,1′-biphenyl]-3-yl)methoxy)phenoxy)methyl)nicotinonitrile]
1.7 | Cc1c(COc2cc(OCc3cncc(C#N)c3)c(CNCc3ccnn3C)cc2Cl)cccc1-c1cccc(OCC2CCCN(C)C2)c1Cl (centres unmarked) [Example 2614, 5-((4-chloro-5-((2′-chloro-2-methyl-3′-((1-methylpiperidin-3-yl)methoxy)-[1,1′-biphenyl]-3-yl)methoxy)-2-((((1-methyl-1H-pyrazol-5-yl)methyl)amino)methyl)phenoxy)methyl)nicotinonitrile]
1.9 | Cc1c(COc2cc(OCc3cncc(C#N)c3)c(CNCc3nc4ccccc4[nH]3)cc2Cl)cccc1-c1cccc(OCC2CCCN(C)C2)c1Cl (centres unmarked) [Example 2616, 5-((2-((((1H-benzo[d]imidazol-2-yl)methyl)amino)methyl)-4-chloro-5-((2′-chloro-2-methyl-3′-((1-methylpiperidin-3-yl)methoxy)-[1,1′-biphenyl]-3-yl)methoxy)phenoxy)methyl)nicotinonitrile]
